Literature values as cited in patent publication US6461603B2, “Water-soluble polymer conjugates of artelinic acid” (Shearwater Corporation, priority 2000, dated 2002).

water solubility (background statement) | solubility at physiological pH (physiological pH, higher pH required for desirable solubility) | Structure (SMILES)
low | – | C[C@@H]1CC[C@H]2[C@@H](C)C(OCc3ccc(C(=O)O)cc3)O[C@@H]3O[C@]4(C)CC[C@@H]1[C@]32OO4 (some centres unmarked) [artelinic acid]
– | not highly soluble | C[C@H]1[C@@H](OCc2ccc(C(=O)O)cc2)O[C@@H]2O[C@]3(C)CC[C@H]4[C@H](C)CC[C@@H]1[C@@]24OO3 [sodium artelinate]
